Structures can show the parent of a compound that is named as a salt.

One assay has as its system Acinetobacter baumannii ATCC17961. As to the kind of experiment: Antimicrobial susceptibility testing: 90% growth inhibitory concentration (IC90) determination. To be noted: Acinetobacter baumannii ATCC17961; Iso-Sensitest broth; growth by OD 600 nm over 16 h; 35±2° C.; read-out: ATCC 17961 IC90. The class given is cell-based. The method, boiled down:
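Twofold serial dilutions (e.g. 50 to 0.097 μM final) in Iso-Sensitest broth, inoculated at ~5×10^(5) CFU/ml, incubated at 35±2° C. OD600 read every 20 min over 16 h; IC90 derived from growth inhibition during logarithmic growth.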
Take `Cn1c(-c2ccc(OC(F)F)c(Cl)c2F)cnc1C(=O)Nc1ccc(C(=O)N2CCN(C(=O)[C@@H]3C[C@@H](O)C[N+]3(C)C)CC2)c(Cl)c1` [Example B47, 5-[3-chloro-4-(difluoromethoxy)-2-fluoro-phenyl]-N-[3-chloro-4-[4-[(2S,4R)-4-hydroxy-1,1-dimethyl-pyrrolidin-1-ium-2-carbonyl]piperazine-1-carbonyl]phenyl]-1-methyl-imidazole-2-carboxamide; iodide]: the IC90 (usually the concentration at which the effect reaches the 90% level) came out at 39 nM. Still for that read-out and setting: the same measure for `Cn1c(-c2ccc(OC(F)F)c(F)c2Cl)cnc1C(=O)Nc1ccc(C(=O)N2CCN(C(=O)[C@@H]3C[C@@H](O)C[N+]3(C)C)CC2)c(Cl)c1` [Example B53]: 91 nM; for `COc1ccc(-c2cnc(C(=O)Nc3ccc(C(=O)N[C@H]4[C@@H]5CN(C(=O)[C@@H]6C[C@@H](O)C[N+]6(C)C)C[C@@H]54)c(Cl)c3)n2C)c(F)c1F` [Example B54, N-[3-chloro-4-[(exo)-3-[(2 S,4R)-4-hydroxy-1,1-dimethyl-pyrrolidin-1-ium-2-carbonyl]-3-azabicyclo[3.1.01 hexan-6-yl]carbamoyl]phenyl]-5-(2,3-difluoro-4-methoxy-phenyl)-1-methyl-imidazole-2-carboxamide formate]: 350 nM.

With `COc1ccc(-c2cnc(C(=O)Nc3ccc(C(=O)N[C@H]4[C@@H]5CN(C(=O)N[C@@H]6C[N+](C)(C)C[C@H]6O)C[C@@H]54)c(Cl)c3)n2C)c(F)c1F` [Example B55, (exo)-6-[[2-chloro-4-[[5-(2,3-difluoro-4-methoxy-phenyl)-1-methyl-imidazole-2-carbonyl]amino]benzoyl]amino]-N-[(trans)-4-hydroxy-1,1-dimethyl-pyrrolidin-1-ium-3-yl]-3-azabicyclo[3.1.0]hexane-3-carboxamide formate], the IC90 turned out to be 150 nM.

For `Cn1c(-c2ccc(OCF)c(F)c2F)cnc1C(=O)Nc1ccc(C(=O)N2CCN(C(=O)C[N+](C)(C)C)CC2)c(Cl)c1` [Example B56, [2-[4-[2-chloro-4-[[5-[2,3-difluoro-4-(fluoromethoxy)phenyl]-1-methyl-imidazole-2-carbonyl]amino]benzoyl]piperazin-1-yl]-2-oxo-ethyl]-trimethyl-ammonium; formate], the IC90 came out at 61 nM.

For `Cn1c(-c2ccc(OC(F)F)c(F)c2Cl)cnc1C(=O)Nc1ccc(C(=O)N2CCN(C(=O)C3CC[N+](C)(CC(N)=O)CC3)CC2)c(Cl)c1` (stereo not drawn) [Example C1, N-[4-[4-[1-(2-Amino-2-oxo-ethyl)-1-methyl-piperidin-1-ium-4-carbonyl]piperazine-1-carbonyl]-3-chloro-phenyl]-5-[2-chloro-4-(difluoromethoxy)-3-fluoro-phenyl]-1-methyl-imidazole-2-carboxamide;formate], the IC90 was 23 nM. The same measure, in the same setting: the same measure for `Cn1c(-c2ccc(OC(F)F)c(F)c2F)cnc1C(=O)Nc1ccc(C(=O)N2CCN(C(=O)C3CC[N+](C)(CC(N)=O)CC3)CC2)c(Cl)c1` (stereo not drawn) [Example C2, N-[4-[4-[1-(2-amino-2-oxo-ethyl)-1-methyl-piperidin-1-ium-4-carbonyl]-piperazine-1-carbonyl]-3-chloro-phenyl]-5-[4-(difluoro-methoxy)-2,3-difluoro-phen-yl]-1-methyl-imidazole-2-carboxamide; formate]: 34 nM; for `COc1ccc(-c2cnc(C(=O)Nc3ccc(C(=O)N4CCN(C(=O)C5CC[N+](C)(CC(N)=O)CC5)CC4)c(Cl)c3)n2C)c(Cl)c1F` (stereo not drawn) [Example C3, N-[4-[4-[1-(2-amino-2-oxo-ethyl)-1-methyl-piperidin-1-ium-4-carbonyl]-piperazine-1-carbonyl]-3-chloro-phenyl]-5-(2-chloro-3-fluoro-4-meth-oxy-phenyl)-1-methyl-imid-azole-2-carbox-amide; formate]: 57 nM. Still for that read-out and setting: the same measure for `COc1ccc(-c2cnc(C(=O)Nc3ccc(C(=O)N4CCN(C(=O)C5CC[N+](C)(CC(N)=O)CC5)CC4)c(Cl)c3)n2C)c(F)c1F` (stereo not drawn) [Example C5, N-[4-[4-[1-(2-amino-2-oxo-ethyl)-1-methyl-piperidin-1-ium-4-carbonyl]-piperazine-1-carbonyl]-3-chloro-phenyl]-5-(2,3-difluoro-4-methoxy-phenyl)-1-meth-yl-imidazole-2-carboxamide; formate]: 73 nM. On the same count and under the same terms, the same measure for `COc1ccc(-c2cnc(C(=O)Nc3ccc(C(=O)N4CCN(C(=O)C5CCN(C(=O)C[N+](C)(C)C)CC5)CC4)c(Cl)c3)n2C)c(F)c1F` [Example C6, [2-[4-[4-[2-chloro-4-[5-(2,3-difluoro-4-methoxy-phen-yl)-1-methyl-imidazole-2-carbonyl]amino]-benzoyl]piper-azine-1-carbon-yl]-1-piperidyl]-2-oxo-ethyl]-trimethyl-ammonium; formate]: 160 nM. On to `COc1ccc(-c2cnc(C(=O)Nc3ccc(C(=O)N4CCN(C(=O)C5CCN(C(=O)C[N+](C)(C)CC(N)=O)CC5)CC4)c(Cl)c3)n2C)c(F)c1F` [Example C7, (2-amino-2-oxo-ethyl)-[2-[4-[4-[2-chloro-4-[[5-(2,3-difluoro-4-methoxy-phenyl)-1-meth-yl-imidazole-2-carbonyl]amino]-benzoyl]piper-azine-1-carbon-yl]-1-piperidyl]-2-oxo-ethyl]-dimethyl-ammo-nium; formate], for which the IC90 amounted to 250 nM. Still for that read-out and setting: the same measure for `COc1ccc(-c2cnc(C(=O)Nc3ccc(C(=O)N4CCN(C(=O)C5CC[N+](C)(CC(=O)O)CC5)CC4)c(Cl)c3)n2C)c(F)c1F` (stereo not drawn) [Example C8, 2-[4-[4-[2-chloro-4-[[5-(2,3-difluoro-4-methoxy-phen-yl)-1-methyl-imidazole-2-carbonyl]amino]-benzoyl]piper-azine-1-carbon-yl]-1-methyl-piperidin-1-ium-1-yl]acetic acid; formate]: 640 nM.

Staying with this assay, now noted: Acinetobacter baumannii, ATCC17961, 16 h, read-out: ATCC 17961 IC90, Acinetobacter baumannii ATCC17961; Iso-Sensitest broth; growth by OD 600 nm over 16 h; 35±2° C.
`Cn1c(-c2ccc(OCF)c(F)c2F)cnc1C(=O)Nc1ccc(C(=O)N2CCN(C(=O)[C@@H]3C[C@@H](O)C[N+]3(C)C)CC2)c(Cl)c1` [Example B45, N-[3-chloro-4-[4-[(2S,4R)-4-hydroxy-1,1-dimethyl-pyrrolidin-1-ium-2-carbonyl]piperazine-1-carbonyl]phenyl]-5-[2,3-difluoro-4-(fluoromethoxy)phenyl]-1-methyl-imidazole-2-carboxamide; formate]: the IC90 came out at 93 nM.

For `COc1ccc(-c2cnc(C(=O)Nc3ccc(C(=O)N4CCN(C(=O)[C@@H]5CC[C@H](O)C[N+]5(C)C)CC4)c(Cl)c3)n2C)c(F)c1F` [Example B46, N-[3-chloro-4-[4-[(2S,5S)-5-hydroxy-1,1-dimethyl-piperidin-1-ium-2-carbonyl]piperazine-1-carbonyl]phenyl]-5-(2,3-difluoro-4-methoxy-phenyl)-1-methyl-imidazole-2-carboxamide; formate], the IC90 worked out at 120 nM. As for `COc1ccc(-c2cnc(C(=O)Nc3ccc(C(=O)N4CCN(C(=O)[C@@H]5C[C@@H](O)C[N+]5(C)C)CC4)c(Cl)c3)n2C)c(F)c1Cl` [Example B48, 5-(3-chloro-2-fluoro-4-methoxy-phenyl)-N-[3-chloro-4-[4-[(2S,4R)-4-hydroxy-1,1-dimethyl-pyrrolidin-1-ium-2-carbonyl]piperazine-1-carbonyl]phenyl]-1-methyl-imidazole-2-carboxamide formate], the IC90 was 76 nM. The same measure, in the same setting: the same measure for `COc1ccc(-c2cnc(C(=O)Nc3ccc(C(=O)N4CCN(C(=O)[C@@H]5C=CC[N+]5(C)C)CC4)c(Cl)c3)n2C)c(F)c1F` [Example B49, N-[3-chloro-4-[4-[(2S)-1,1-dimethyl-2,5-dihydropyrrol-1-ium-2-carbonyl]piperazine-1-carbonyl]phenyl]-5-(2,3-difluoro-4-methoxy-phenyl)-1-methyl-imidazole-2-carboxamide formate]: 120 nM; for `COc1ccc(-c2cnc(C(=O)Nc3ccc(C(=O)N4CCN(C(=O)[C@@H]5[C@@H](O)[C@@H](O)C[N+]5(C)C)CC4)c(Cl)c3)n2C)c(F)c1F` [Example B50, N-[3-chloro-4-[4-[(2S,3R,4S)-3,4-dihydroxy-1,1-dimethyl-pyrrolidin-1-ium-2-carbonyl]piperazine-1-carbonyl]phenyl]-5-(2,3-difluoro-4-methoxy-phenyl)-1-methyl-imidazole-2-carboxamide formate]: 250 nM. Same read-out and setting: to `COc1ccc(-c2cnc(C(=O)Nc3ccc(C(=O)N4CCN(C(=O)[C@@H]5C[C@@H](O)C[N+]5(C)C)CC4)c(Cl)c3)n2C)c(F)c1C#N` [Example B51, N-[3-chloro-4-[4-[(2S,4R)-4-hydroxy-1,1-dimethyl-pyrrolidin-1-ium-2-carbonyl]piperazine-1-carbonyl]phenyl]-5-(3-cyano-2-fluoro-4-methoxy-phenyl)-1-methyl-imidazole-2-carboxamide; formate] belongs 540 nM; to `COc1ccc(-c2cnc(C(=O)Nc3ccc(C(=O)N4CCN(C(=O)[C@@H]5C[C@@H](O)C[N+]5(C)C)CC4)c(Cl)c3)n2C)c(F)c1C(F)(F)F` [Example B52, N-[3-chloro-4-[4-[(2S,4R)-4-hydroxy-1,1-dimethyl-pyrrolidin-1-ium-2-carbonyl]piperazine-1-carbonyl]phenyl]-5-[2-fluoro-4-methoxy-3-(trifluoromethyl)phenyl]-1-methyl-imidazole-2-carboxamide; formate], 520 nM. The same measure, in the same setting: the same measure for `Cn1c(-c2ccc(OC(F)F)c(F)c2Cl)cnc1C(=O)Nc1ccc(C(=O)N2CCN(C(=O)C3CC[N+](CC(N)=O)(CC(N)=O)CC3)CC2)c(Cl)c1` [Example C9, N-[4-[4-[1,1-bis(2-amino-2-oxo-ethyl)piper-idin-1-ium-4-carbonyl]piper-azine-1-carbon-yl]-3-chloro-phenyl]-5-[2-chloro-4-(difluorometh-oxy)-3-fluoro-phenyl]-1-methyl-imid-azole-2-carbox-amide; formate]: 120 nM; for `Cn1c(-c2ccc(OC(F)F)c(F)c2Cl)cnc1C(=O)Nc1ccc(C(=O)N2CCN(C(=O)C3CC[N+](CC(N)=O)(CC4CNC4)CC3)CC2)c(Cl)c1` (stereo not drawn) [Example C10]: 100 nM.

These data come from patent US20240376073A1 (Hoffmann-La Roche Inc., priority 2021, published 2024).
